Columns and labels:
[1] = test system: melanoma tumor gene signatures; assay: NanoString nCounter gene expression of FFPE melanoma biopsies; format: in vivo, human
From the text: FFPE gene expression analysis: For each gene biomarker, RNA was extracted from FFPE slides using Qiagen's AllPrep kit (Cat. 80234) and analyzed using NanoString nCounter platform with the PanCancer Immune probe set. Raw counts were normalized using the geometric mean of 30 housekeeping genes and the normalized data from both panels were merged and analyzed with nSolver software (Version 4.0).
Interferon gene signature was based on Ayers et al (JCI 2017) and calculated in the following manner. For each patient (pt) sample, the geometric mean was calculated from the normalized counts for six genes (IFN-γ, CXCL9, CXCL10, HLA-DRA, IDO1, STAT1) and then the mean was Log 10-transformed to generate the Gene Expression score. […] Gene scores were calculated for each patient sample from the geometric mean of normalized counts for IFN-gamma, CXCL9, CXCL10, HLA-DRA, IDO1, and STAT1. The mean was Log 10-transformed to generate the Gene Expression score.
The tumor inflammatory signature (TIS) was calculated from 18 genes by taking the Log 10 of the geometric mean of the normalized counts across each gene set to generate a “Gene signature score”. See, e.g., Righi E, Kashiwagi S, Yuan J, et al. “CXCL12/CXCR4 Blockade Induces Multimodal Antitumor Effects That Prolong Survival in an Immunocompetent Mouse Model of Ovarian Cancer,” Cancer Res. 2011; 71(16):5522-5534.
Raw counts were normalized using the geometric mean of housekeeping genes. The Interferon-gamma gene signature score was assessed by a procedure essentially as described in Ayers et al. (2017) J. Clin. Invest. 127:2930-2940.
To perform the CTL signature measurement, RNA was extracted from FFPE slides using Qiagen's AllPrep kit and analyzed using the NanoString nCounter platform with the PanCancer Immune probe set. Raw counts were normalized using the geometric mean of housekeeping genes. NanoString nCounter validation is described at Malkov et al. (2009) BMC Research Notes; 2:80; accessed Nov. 2, 2017 at https://bmcresnotes.biomedcentral.com/articles/10.1186/1756-0500-2-80; Waggott et al. (2012) Bioinformatics 28:1546-1548; see also nCounter® Analysis System User Manual (July 2015), published by NanoString Technologies®, Inc., accessed Nov. 2, 2017, at https://www.nanostring.com/application/files/7114/8942/6665/MAN-C0035-05_nCounter Analysis_System_GEN2.pdf.
For each gene biomarker, RNA was extracted from FFPE slides using Qiagen's AllPrep kit (Cat. 80234) and analyzed using NanoString nCounter platform with the PanCancer Immune probe set. Raw counts were normalized using the geometric mean of housekeeping genes, as described above.
Antigen Presentation/Processing Gene Signature was calculated by taking the geometric mean of the normalized counts for eighteen (18) genes (B2M, CD74, CTSL, CTSS, HLA-DMA, HLA-DMB, HLA-DOB, HLA-DPA1, HLA-DPB1, HLA-DQA1, HLA-DQB1, HLA-DRA, HLA-DRB1, HLA-DRB3, PSMB8, PSMB9, TAP1, and TAP2) and then Log 10-transforming the mean to generate the Gene Expression Score.
Tumor Inflammation Signature was calculated by taking the geometric mean of the normalized counts for eighteen (18) genes (CCL5, CD27, CD274, CD276, CD8A, CMKLR1, CXCL9, CXCR6, HLA-DQA1, HLA-DRB1, HLA-E, IDO1, LAG3, NKG7, PDCD1LG2, PSMB10, STAT1, and TIGIT) and then Log 10-transforming the mean to generate the Gene Expression Score.

[2] = Phase 1 and 2a trials; cited from earlier work
[3] = test system: melanoma, renal cell carcinoma, and ovarian cancer; settings: murine models; cited from earlier work
[4] = pre- vs post-dosing, five patients
[5] = pre- vs post-dosing, patients 2, 3, 5, 8, and 9

NCCCCN(Cc1nc2ccccc2[nH]1)[C@H]1CCCc2cccnc21 [X4P-001]
CD8A expression ([1]; NanoString nCounter): increased | CD8B expression ([1]; NanoString nCounter): increased | granzyme B expression ([1]; NanoString nCounter): increased | Tumor Inflammation Signature Gene Expression Score, Post-X4P-001 Score ([1]; Patient 2, Pre-Dose Score 2.123, Log 10 of geometric mean of 18 genes): 2.225 | Antigen Presentation/Processing Gene Expression Score, Post-X4P-001 Score ([1]; Patient 2, Pre-Dose Score 2.94, Log 10 of geometric mean of 18 genes): 2.986 | Tumor Inflammation Signature Gene Expression Score, Post-X4P-001 Score ([1]; Patient 3, Pre-Dose Score 2.647): 2.798 | Antigen Presentation/Processing Gene Expression Score, Post-X4P-001 Score ([1]; Patient 3, Pre-Dose Score 3.139): 3.324 | Tumor Inflammation Signature Gene Expression Score, Post-X4P-001 Score ([1]; Patient 5, Pre-Dose Score 2.871): 3.257 | Antigen Presentation/Processing Gene Expression Score, Post-X4P-001 Score ([1]; Patient 5, Pre-Dose Score 3.519): 3.806 | Tumor Inflammation Signature Gene Expression Score, Post-X4P-001 Score ([1]; Patient 8, Pre-Dose Score 2.508): 2.834 | Antigen Presentation/Processing Gene Expression Score, Post-X4P-001 Score ([1]; Patient 8, Pre-Dose Score 3.134): 3.518 | Tumor Inflammation Signature Gene Expression Score, Post-X4P-001 Score ([1]; Patient 9, Pre-Dose Score 2.233): 2.597 | Antigen Presentation/Processing Gene Expression Score, Post-X4P-001 Score ([1]; Patient 9, Pre-Dose Score 3.082): 3.495 | cytotoxic T lymphocyte (CTL) gene signature gene expression score [1, 4]: increased for each one of the five patients | interferon gamma (IFN-γ) gene signature Gene Expression Score [1, 4]: increased for each one of the five patients | Antigen Presentation/Processing Gene Expression Score, change [1, 5]: increased for each patient | Tumor Inflammation Signature Gene Expression Score, change [1, 5]: increased for each patient | pharmacodynamic activity: circulating white blood cells (WBCs) [2]: dose- and concentration-related changes | volume of distribution (VL) [2]: high | anti-tumor activity [3]: significant anti-tumor activity, including decreased metastasis and increased overall survival
